Columns and labels:
[1] = tested on: PEO1 cells; experiment: In vitro [^18F]11 uptake in PEO1 cells; type: cell-based, human; conditions: 50 μg/mL CDDP, 60 min uptake
Excerpt: The human ovarian carcinoma cell lines PEO1/4 were established and characterised as described in Wolf C. R. et al.^22 and Langdon S. P. et al^23. Briefly, PEO1/4 cells were derived from the malignant ascites of a patient with a recurrent mucinous ovarian adenocarcinoma, before (PEO1) and after (PEO4) the onset of a clinical resistance to cisplatin chemotherapy in this patient. The radiation-induced murine fibrosarcoma (RIF-1) tumour cell line was originally characterised by Twentyman P. R. et al.^20. The LNM35 tumour cells are a highly lymphogenous metastatic subline of the human large pulmonary carcinoma NCI-H460 cell line, as described in Kozaki K. et al.^24. […]
Cells were plated in triplicate in 12-well plates 2 or 3 days prior to the experiments and treated with the antineoplastic platinum-derived drug Cisplatin, 5-FU, the protein synthesis inhibitor cycloheximide (CHX) or the topoisomerase inhibitor etoposide (VP-16) (Sigma, UK) or corresponding vehicle at the indicated concentration and time. […] 260 μL of each sample were transferred in counting tubes and Fluorine-18 radioactivity was immediately determined using a Packard Cobra II gamma counter (Perkin Elmer, UK). […] BCA Protein assay (Pierce, UK) was performed for all samples and datas are normalized and expressed as CCPMA or RLU (Relative Light Unit)/mg of protein.

[2] = tested on: PEO4 xenograft; experiment: In vivo [^18F]11 biodistribution and PET imaging, PEO4 xenograft; parameters: species or system mice; conditions: for 60 min biodistribution, Bone / 60 min biodistribution, Kidney / 60 min biodistribution, L. Intestine / 60 min biodistribution, Liver / 60 min biodistribution, Lung / 60 min biodistribution, Muscle / 60 min biodistribution, S. Intestine / 60 min biodistribution, Spleen / 60 min biodistribution, Tumour: PEO4
Excerpt: (§1) In vivo tumour models were established by subcutaneous injection of PEO1/4 (10×10^6 cells, with v/v matrigel, BD Biosciences, Oxford, UK), RIF-1 (5×10^5 cells) and LNM35 (1×10^6 cells) on the back of 6-8 weeks old female nu/nu-BALB/c or male C3H/hej mice (Harlan, Bicester, Oxfordshire, UK). Tumour growth was monitored every two days using electronic callipers, and tumour volume estimated using (π/6)×L×W×D (L=length, W=width and D=depth). All animal work was done by licensed investigators in accordance with the United Kingdom's “Guidance on the Operation of Animals (Scientific Procedures) Act 1986” (HMSO, London, United Kingdom, 1990) and in full compliance with government regulations and guidelines on the welfare of animals in experimental neoplasia.
(§2) For biodistribution studies, tumour-bearing mice were treated with 10 mg/kg cisplatin or vehicle for 24 h, anesthetized with isofluorane/O2/N2O and injected i.v. in the lateral tail vein with ˜100 μCi [^18F]11 for the indicated time. The different tissues were removed, weighted and placed in counting tubes for immediate Fluorine-18 radioactivity counting.
(§3) Tumour-bearing mice treated with Cisplatin (10 mg/kg for 24 h) or vehicle were scanned on a dedicated small animal PET scanner (quad-HIDAC; Oxford Positron Systems, Weston-on-the-Green, United Kingdom). Anesthetized animals were placed within a thermostatically controlled bed and positioned prone within the scanner. The bed was calibrated to provide a mouse rectal temperature of ˜37° C. A bolus injection of [^18F]11 (˜100 μCi) was given intravenously (i.v.) via the tail vein cannula and scanning commenced. Dynamic emission scans were acquired in list-mode format over 60 minutes. The acquired data were then sorted into 0.5-mm sinogram bins and 19 time frames (0.5×0.5×0.5 mm voxels; 4×15, 4×60, and 11×300 seconds) for image reconstruction, which was done by filtered back projection using a two-dimensional Hamming filter (cutoff 0.6). The image data-sets obtained were transferred to a SUN workstation (Ultra 10; SUN Microsystems, Santa Clara, Calif.) and visualized using the Analyze software (version 6.0; Biomedical Imaging Resource, Mayo Clinic, Rochester, Minn.). Cumulative images of the dynamic data composed of 0 to 1 minute after injection and 30 to 60 minutes after injection were used for visualization of radiotracer uptake and to define the regions of interest (ROI). The count densities were averaged for each ROI at each of the 19 time points to obtain a time versus radioactivity curve (TAC) for the ROIs. Tumour TAC was normalized to that of heart at each of the time points to obtain the normalized uptake value (NUV). The [^18F]9 data from […] were used as internal input function for normalizing tumour data. […] FRT is a useful variable in that it indicates the proportion of radiotracer delivered to the tumour that is retained. It therefore normalizes tumor [^18F]9 uptake to delivery.

[3] = tested on: RIF-1 xenograft; experiment: In vivo [^18F]11 biodistribution and PET imaging, RIF-1 xenograft; parameters: species or system mice; conditions: for 60 min biodistribution, Bone / 60 min biodistribution, Kidney / 60 min biodistribution, L. Intestine / 60 min biodistribution, Liver / 60 min biodistribution, Lung / 60 min biodistribution, Muscle / 60 min biodistribution, S. Intestine / 60 min biodistribution, Spleen / 60 min biodistribution, Tumour: RIF-1
Excerpt: as §1, §2, §3
RIF-1 tumor was treated with vehicle (50% DMSO) or CDDP (10 mg/kg single dose). The [^18F]-derived radioactivity levels at 60 min post radiotracer injection were analysed and expressed as a ratio to that of blood. […] 1.5-fold increase in uptake of [^18F]11 for treated mice over vehicle treated mice. Data are mean±SEM and n=8 mice per group.

O=C1C(=O)N(Cc2cn(CC[18F])nn2)c2ccc(S(=O)(=O)N3CCC[C@H]3COc3ccc(F)cc3F)cc21 [[^18F]11, (S)-1-((1-(2-Fluoroethyl)-1H-[1,2,3]-triazol-4-yl)methyl)-5-(2(2,4-difluorophenoxymethyl)-pyrrolidine-1-sulfonyl)isatin]
[^18F]11 uptake in drug-treated cells compared to control [1]: significantly increased
60 min biodistribution, Bone ([2]; CDDP treated): 1.44 ± 0.66
60 min biodistribution, Bone ([2]; Control): 1.12 ± 0.47
uptake in the tumour of CDDP treated vs control mice ([2]; CDDP-resistant PEO4 tumours, 60 min): not showing differences in uptake between control and treated
PET image: uptake in the tumour ([2]; CDDP-treated mouse, PEO4 xenograft, 30-60 min): significant uptake
60 min biodistribution, Kidney ([2]; CDDP treated): 7.96 ± 3.34
60 min biodistribution, Kidney ([2]; Control): 8.04 ± 4.24
60 min biodistribution, L. Intestine ([2]; CDDP treated): 2.89 ± 0.93
60 min biodistribution, L. Intestine ([2]; Control): 2.40 ± 1.88
60 min biodistribution, Liver ([2]; CDDP treated): 8.22 ± 2.89
60 min biodistribution, Liver ([2]; Control): 6.71 ± 1.56
60 min biodistribution, Lung ([2]; CDDP treated): 4.73 ± 1.78
60 min biodistribution, Lung ([2]; Control): 3.31 ± 0.83
60 min biodistribution, Muscle ([2]; CDDP treated): 1.13 ± 0.22
60 min biodistribution, Muscle ([2]; Control): 0.88 ± 0.36
60 min biodistribution, S. Intestine ([2]; CDDP treated): 10.43 ± 14.36
60 min biodistribution, S. Intestine ([2]; Control): 10.37 ± 10.58
60 min biodistribution, Spleen ([2]; CDDP treated): 1.81 ± 0.80
60 min biodistribution, Spleen ([2]; Control): 1.26 ± 0.45
60 min biodistribution, Tumour ([2]; CDDP treated): 2.15 ± 0.79
60 min biodistribution, Tumour ([2]; Control): 1.66 ± 0.41
60 min biodistribution, Bone ([3]; CDDP treated): 1.78 ± 1.72
60 min biodistribution, Bone ([3]; Control): 1.06 ± 0.49
PET image: uptake in the tumour ([3]; CDDP-treated mouse, RIF-1 xenograft, 30-60 min): significant uptake
60 min biodistribution, Kidney ([3]; CDDP treated): 5.50 ± 2.59
60 min biodistribution, Kidney ([3]; Control): 8.49 ± 2.00
60 min biodistribution, L. Intestine ([3]; CDDP treated): 2.88 ± 1.52
60 min biodistribution, L. Intestine ([3]; Control): 2.66 ± 0.67
60 min biodistribution, Liver ([3]; CDDP treated): 10.58 ± 4.64
60 min biodistribution, Liver ([3]; Control): 11.36 ± 2.39
60 min biodistribution, Lung ([3]; CDDP treated): 3.23 ± 0.43
60 min biodistribution, Lung ([3]; Control): 4.47 ± 1.00
60 min biodistribution, Muscle ([3]; CDDP treated): 1.09 ± 0.54
60 min biodistribution, Muscle ([3]; Control): 1.76 ± 1.33
increase in tumour uptake (ratio to blood), treated over vehicle treated mice ([3]; RIF-1 tumour, CDDP 10 mg/kg single dose, 60 min post injection): ~1.5 fold
60 min biodistribution, S. Intestine ([3]; CDDP treated): 11.08 ± 6.00
60 min biodistribution, S. Intestine ([3]; Control): 14.93 ± 12.68
60 min biodistribution, Spleen ([3]; CDDP treated): 1.85 ± 0.76
60 min biodistribution, Spleen ([3]; Control): 1.85 ± 0.19
60 min biodistribution, Tumour ([3]; CDDP treated): 1.31 ± 1.04
60 min biodistribution, Tumour ([3]; Control): 0.96 ± 0.10

— patent US8961930B2, “Isatin derivatives for use as in vivo imaging agents” (Imperial Innovations Limited, priority 2008, dated 2015)
